Data from patent US8669072B2, “Oxadiazoline ligands for modulating the expression of exogenous genes via an ecdysone receptor complex” (Intrexon Corporation, priority 2003, dated 2014).
Read-outs that look alike come from different tables or passages of the source.

Key:
[1] = biological target: T1, GAL4 DBD-CfEcR(DEF)/VP16AD-MmRXRE (Choristoneura fumiferana, UniProt O77240); assay: 13B3 assay: luciferase reporter gene induction in stable CHO clone 13B3; format: cell-based; details: for fold induction at 33.3 µM / Fold Induction Average, 13B3 assay: 48 h; for fold induction at 33.3 µM: read-out: Fold Induction Average, 13B3 assay
T1 construct: The wild-type D, E, and F domains from spruce budworm Choristoneura fumiferana EcR (“CfEcR-DEF”)
Method: CHO cells were transiently transfected with transcription cassettes for GAL4 DBD-CfEcR(DEF) and for VP16AD-MmRXRF controlled by SV40e promoters. Stably transfected cells were selected using Hygromycin. Individually isolated CHO cell clones were transiently transfected with a GAL4 RE-luciferase reporter (pFR-Luc, Stratagene, La Jolla, Calif.). The 13B3 clone was selected using Zeocin.
(§1) Cells were trypsinized and diluted to a concentration of 2.5×10^4 cells mL. 100 μL of cell suspension was placed in each well of a 96 well plate and incubated at 37° C. under 5% CO2 for 24 h. Ligand stock solutions were prepared in DMSO and diluted 300 fold for all treatments.
(§2) Luciferase reporter gene expression was measured 48 h after cell treatment using Bright-Glo™ Luciferase Assay System from Promega (E2650). Luminescence was detected at room temperature using a Dynex MLX microtiter plate luminometer.
(§3) Each assay was conducted in two separate wells, and the two values were averaged. Fold inductions were calculated by dividing relative light units (“RLU”) in ligand treated cells with RLU in DMSO treated cells. EC50s were calculated from dose response data using a three-parameter logistic model.

[2] = biological target: T2, GAL4 DBD (1-147)-CfEcR(DEF)/VP16AD-βRXREF-LmUSPEF (Choristoneura fumiferana, UniProt O77240); assay: cell-based; details: for fold induction at 33.3 µM: 48 h, read-out: Fold Induction Average, 27-63 assay; for Rel Max FI, 27-63 assay: maximum fold induction relative to that of GS-E ligand
T2 construct: The wild-type D, E, and F domains from spruce budworm Choristoneura fumiferana EcR (“CfEcR-DEF”)
Method: Stably transfected cells were selected by Zeocin resistance. Individually isolated CHO cell clones were transiently transfected with a GAL4 RE-luciferase reporter (pFR Luc). 27-63 clone was selected using Hygromycin.
as §1, §2, §3

Bombyx mori EcR (VBE) = biological target: T3, Bombyx mori EcR (VBE) (Bombyx mori, UniProt P49881); assay: Z3 assay: β-galactosidase reporter gene induction in HEK-293 clone Z3 (CVBE / 6XEcRE LacZ); format: cell-based; details: for fold induction at 33 µM: read-out: Fold Induction Average, Z3 assay
T3 construct: expressed in transfected cells; host or cells: Human HEK-293 cells, retrovirally infected, clone Z3
T3 sequence (P49881 86-606 limits assumed): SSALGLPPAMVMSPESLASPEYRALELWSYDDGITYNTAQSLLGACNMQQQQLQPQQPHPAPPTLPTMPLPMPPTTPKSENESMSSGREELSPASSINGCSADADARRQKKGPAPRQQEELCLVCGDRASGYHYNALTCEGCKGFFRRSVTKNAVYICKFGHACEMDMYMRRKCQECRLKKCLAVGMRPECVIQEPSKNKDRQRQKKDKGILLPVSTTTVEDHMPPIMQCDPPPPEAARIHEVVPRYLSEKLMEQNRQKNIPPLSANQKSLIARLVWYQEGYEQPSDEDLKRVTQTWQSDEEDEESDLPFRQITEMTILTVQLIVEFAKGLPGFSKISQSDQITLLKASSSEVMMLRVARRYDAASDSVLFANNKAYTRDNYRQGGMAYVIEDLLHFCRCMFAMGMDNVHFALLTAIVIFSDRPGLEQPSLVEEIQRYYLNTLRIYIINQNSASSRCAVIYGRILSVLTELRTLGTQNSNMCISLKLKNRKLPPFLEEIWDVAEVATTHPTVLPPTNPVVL
T3 sequence (P19793 1-462 partner): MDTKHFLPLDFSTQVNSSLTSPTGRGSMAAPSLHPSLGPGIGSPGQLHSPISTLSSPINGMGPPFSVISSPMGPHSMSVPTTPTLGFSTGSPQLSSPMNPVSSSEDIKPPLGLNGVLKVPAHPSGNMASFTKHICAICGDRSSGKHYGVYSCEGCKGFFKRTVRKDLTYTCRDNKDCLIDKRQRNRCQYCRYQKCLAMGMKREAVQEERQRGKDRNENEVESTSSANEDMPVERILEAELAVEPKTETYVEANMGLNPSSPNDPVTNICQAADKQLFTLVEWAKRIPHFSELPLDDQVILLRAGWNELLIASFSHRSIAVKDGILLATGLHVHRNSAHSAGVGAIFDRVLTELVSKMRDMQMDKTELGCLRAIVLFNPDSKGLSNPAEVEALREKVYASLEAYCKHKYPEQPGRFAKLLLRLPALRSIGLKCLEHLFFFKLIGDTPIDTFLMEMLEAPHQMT
Method: A synthetic ATG start codon was placed under the control of cytomegalovirus (CVBE) immediate early promoter and flanked by long terminal repeats (LTR). The reporter construct contained six copies of the ecdysone response element (EcRE) binding site placed upstream of LacZ and flanked on both sides with LTR sequences (6×EcRE).
Dilution cloning was used to isolate individual clones. Clones were selected using 450 ug/mL G418 and 100 ng/mL puromycin. Individual clones were evaluated based on their response in the presence and absence of test ligands.
Z3 cells were seeded into 96-well tissue culture plates at a concentration of 2.5×10^3 cells per well and incubated at 37° C. in 5% CO2 for twenty-four hours. Stock solutions of ligands were prepared in DMSO. […] The final concentration of DMSO was maintained at 0.03% in both controls and treatments.
Reporter gene expression was evaluated 48 hours after treatment of cells, β-galactosidase activity was measured using Gal Screen™ bioluminescent reporter gene assay system from Tropix (GSY1000). Fold induction activities were calculated by dividing relative light units (“RLU”) in ligand treated cells with RLU in DMSO treated cells. Luminescence was detected at room temperature using a Dynex MLX microtiter plate luminometer.
as §3

[3] = 33/33.3 μM ligand, RLU relative to DMSO
[4] = HEK293, 33 μM ligand, 48 h, RLU relative to DMSO
[5] = maximum fold induction relative to that of GS-E ligand
[6] = 33 μM ligand, 48 h, RLU relative to DMSO

Compound	fold induction at 33.3 µM [1, 3]	EC50 [2] [µM]	fold induction at 33.3 µM [2]	Rel Max FI, 27-63 assay [2]	fold induction at 33 µM (Bombyx mori EcR (VBE); [4])	Fold Induction Average, 13B3 assay [1, 3]	Fold Induction Average, Z3 assay (Bombyx mori EcR (VBE); [6])	also measured
Cc1cc(C)cc(C2=NOC(C)(C)N2NC(=O)c2cccc(F)c2)c1 [RG-120002]	0.2	> 33	5.7	0	3.9	–	–	–
CCc1c(OC)cccc1C(=O)NN1C(c2ccccc2OC)=NOC1(C)C [RG-120016]	4.4	~20	1150	0.71	227	–	–	–
Cc1cc(C)cc(C2=NOC(C)(C)N2NC(=O)c2ccc(Cl)cc2)c1 [RG-120024]	2.1	> 33	6.3	0	3.8	–	–	–
COc1cccc(C(=O)NN2C(c3cc(C)cc(C)c3)=NOC23CCc2ccccc2C3)c1C (centres unmarked) [RG-120037, N-[3-(3,5-Dimethyl-phenyl)-1-oxa-2,4-diaza-spiro[4.5]-7,8-benzo-dec-2-en-4-yl]-3-methoxy-2-methyl-benzamide]	0.3	> 33	0.4	0	0.5	–	–	–
CCc1ccc(C(=O)NN2C(c3cc(C)cc(C)c3)=NOC23CCCC3)cc1 [RG-120040]	174	~20	242	0.13	202	–	–	–
COc1cccc(C(=O)NN2C(c3cc(C)cc(C)c3)=NOC2(C)C)c1C [RG-120045, N-[3-(3,5-Dimethyl-phenyl)-5,5-dimethyl-[1,2,4]oxadiazol-4-yl]-3-methoxy-2-methyl-benzamide]	1410	~20	2710	1.25	276	–	–	–
CCc1c(OC)cccc1C(=O)NN1C(c2cc(C)cc(C)c2)=NOC12CCCC2 [RG-120049]	2660	3.42	2070	1.58	310	–	–	EC50 [1]: 3.57 µM; Rel Max FI, 13B3 assay [1, 5]: 1.56; EC50 (Bombyx mori EcR (VBE)): 1.6 µM; Rel Max FI, Z3 assay (Bombyx mori EcR (VBE); [5]): 0.88
CCc1ccc(C(=O)NN2C(c3ccc(OC(F)(F)F)cc3)=NOC2(C)C)cc1 [RG-120055]	0.7	> 33	0.5	0	0.2	–	–	–
CCc1c(OC)cccc1C(=O)NN1C(c2ccc(OC)cc2OC)=NOC1(C)C [RG-120058]	0.3	> 33	0.3	0	1.7	–	–	–
CCc1ccc(C(=O)NN2C(c3ccc4c(c3)OCO4)=NOC2(C)C)cc1 [RG-120061]	0.4	> 33	0.9	0	0.6	–	–	–
CCc1ccc(C(=O)NN2C(c3ccccc3)=NOC2(C)C)cc1 [RG-120115]	–	> 33	–	0	–	–	–	fold induction at 33.3 µM [1]: 0.8; fold induction at 33 µM (Bombyx mori EcR (VBE); HEK293, 48 h): 9.1
CCC1(C)ON=C(c2ccccc2)N1NC(=O)c1ccccc1 (centres unmarked) [RG-120118]	0.8	> 33	13.4	0	1.4	–	–	–
CCc1ccc(C(=O)NN2C(c3ccccc3)=NOC23CCOCC3)cc1 [RG-120124]	1.2	> 33	1	0	2	–	–	–
CCc1ccc(C(=O)NN2C(c3ccc(OC)cc3OC)=NOC2(C)C)cc1 [RG-120135]	0.4	> 33	0.7	0	0.7	–	–	–
CC1(C)ON=C(c2ccc3c(c2)OCO3)N1NC(=O)c1ccco1 [RG-120149]	–	–	–	–	–	1.1	0.7	–
CC1(C)ON=C(c2ccc(Cl)cc2)N1NC(=O)c1ccccc1 [RG-120151]	–	–	–	–	–	0.3	0.8	–
CCOC(=O)CCC(=O)NN1C(c2cccc(C(F)(F)F)c2)=NOC1(C)C [RG-120153]	–	–	–	–	–	0.8	0.7	–
CC1(C)ON=C(c2ccc3c(c2)OCO3)N1NC(=O)c1ccccc1 [RG-120156]	–	–	–	–	–	1.4	0.7	–
CC1(C)ON=C(c2ccc(OC(F)(F)F)cc2)N1NC(=O)Cc1ccccc1 [RG-120160]	–	–	–	–	–	0.3	0.6	–
CC1(C)ON=C(c2ccc(Cl)cc2)N1NC(=O)COc1ccccc1 [RG-120162]	–	–	–	–	–	0.9	0.7	–
CC1(C)ON=C(c2cccc(C(F)(F)F)c2)N1NC(=O)COc1ccccc1 [RG-120163]	–	–	–	–	–	1.1	0.5	–
CCOC(=O)CCC(=O)NN1C(c2ccc(Cl)cc2)=NOC1(C)C [RG-120164]	–	–	–	–	–	1.7	0.6	–
